Assay results as given in PubChem BioAssay AID179 (DTP/NCI, 2004).
pEC50, pIC50: −log10 of the molar value. “And” between values parts separate entries of the source, which are not always exact repeats. Equal values may be shown once. The source made the active and inactive calls.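 The calls were made as follows: active = compounds giving half or more protection of infected cells from virus-caused growth loss, again on retest; inactive = the rest.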

Test system: CEM cells HIV-1 protection, formazan growth assay
Assay: NCI AIDS Antiviral Assay
Details: for pIC50: measured here: growth of uninfected CEM cells
Outline: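 Human CEM cells, uninfected and HIV-1-infected, received five drug concentrations, and growth was read by soluble formazan assay. Compounds giving at least 50% protection were retested; reproducible 100% protection defined confirmed active.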

CN(CCN)[C@H](CSSC[C@@H](c1ccccc1O)N(C)CCN)c1ccccc1O
pEC50: < 3.70
pIC50: 4.75

O=C(NCCN1CCCCC1)c1cccc(I)c1
pEC50: < 3.70
pIC50: < 3.70

NNC(=O)c1n[nH]nc1SSc1n[nH]nc1C(=O)NN
outcome: inactive

CCOC(=O)/C(=C/c1ccccn1)C(=O)c1ccccc1
pEC50: < 3.62
pIC50: 4.90

Cc1nc(SCC(=O)Nc2ccc(Cl)cc2)c2sc(=S)n(-c3ccccc3)c2n1
pEC50: < 3.70
pIC50: < 3.70

CC(C)(C)c1cc(-c2cc(C(C)(C)C)[nH]n2)n[nH]1
pEC50: < 3.70
pIC50: < 3.70

CC1CC/C(=C\c2ccc(Cl)cc2)C2=C1C(c1ccc(Cl)cc1)N1C(=O)CSC1=N2 (configuration not stated)
outcome: inactive

C#CC1(O)CCC2C3CCc4cc(OC)ccc4C3CCC21C (configuration not stated)
pEC50: < 3.70
pIC50: 4.13

Cn1c(=O)c2ncc(N)nc2n(C)c1=O
pEC50: < 4.00
pIC50: < 4.00

Cc1nc(N)nn1C1OCC(O)C(O)C1O (configuration not stated)
outcome: inactive

CC[C@]1(Cc2ccc(OC)c(OC)c2)[C@@H]2C[C@@H](C(=O)OC)ON2O[C@H](OC2CCCC2(c2ccccc2)c2ccccc2)[C@@H]1OC(C)=O (some centres not stated)
pEC50: < 3.70
pIC50: 4.67

COC(=O)c1c2c(cc3c1CC1(Cc4cc5c(cc4C1=O)CCC5)C3)CCC2 (configuration not stated)
pEC50: < 3.70
pIC50: 4.28

Cc1ccccc1N=Cc1ccc(N(CCC#N)S(=O)(=O)c2ccccc2)cc1
pEC50: < 3.21
pIC50: 3.32

Cc1ccc(C(=O)NC2CCCCC2)cc1N=NN(C)C
pEC50: < 4.33
pIC50: 4.34

CC(C)OC(=S)SSC(=S)OC(C)C
pEC50: < 3.70
pIC50: 5.16

COc1ccc(C2=Nc3c(nc(OC)[nH]c3=O)NC(c3ccccc3)C2)cc1 (configuration not stated)
outcome: inactive

COC(=O)N1C[C@@]2(C=CC3(CC2)OCCO3)c2ccccc21
pEC50: < 3.70
pIC50: 5.45

O=C(O)c1cc2c(cc1CC(Cc1ccccc1)C(=O)O)CCC2 (configuration not stated)
outcome: inactive

O=C1OC(=O)C2C3CC(C4N=NN(c5ccccc5)C34)C12 (configuration not stated)
pEC50: < 3.70
pIC50: < 3.70

O=Cc1ccc2c(c1-c1c(C=O)ccc3c1OCO3)OCO2
pEC50: < 3.77
pIC50: 4.10

CC(C)CC(C#N)C(N)=O (configuration not stated)
pEC50: < 3.70
pIC50: < 3.70

Cc1c(C(=O)O)n2c(=S)[nH]nc2c2ccccc12
pEC50: < 3.70
pIC50: < 3.70

O=C(Cn1c2c(c3ccccc31)CCCC2)N1CCOCC1
pEC50: < 3.70
pIC50: < 3.70

COc1ccc(N2C(=O)/C(=C\c3cccc(Oc4ccccc4)c3)S(=O)(=O)C2c2ccccc2)cc1 (configuration not stated)
pEC50: < 3.70
pIC50: 4.54

Cc1ccccc1C1CC(c2ccccc2)=NO1 (configuration not stated)
pEC50: < 4.24
pIC50: < 4.24

O=[N+]([O-])c1cc(C2SCc3nc4ccccc4n32)ccc1Cl (configuration not stated)
outcome: inactive

CC(CC(C)[C@H]1CCC2[C@H]3C(CC[C@@]21C)[C@@]1(C)CCC(O)C[C@H]1C[C@@H]3O)C(=O)O (some centres not stated)
outcome: inactive

S=C(N/N=C(/c1ccccc1)c1ccccn1)Nc1cccc(Cl)c1
pEC50: < 6.70
pIC50: 7.05

O=[N+]([O-])c1ccc(C2NC3=C(CCCC3)N2)cc1
pEC50: < 4.39
pIC50: < 4.39

N#C[C@@H](c1ccccn1)c1ncccc1[N+](=O)[O-]
pEC50: < 3.70
pIC50: < 3.70

Cn1cc(NC(=O)Nc2cc(C(=O)Nc3cc(C(=O)Nc4cc(P(=O)(O)O)c5cccc(P(=O)(O)O)c5c4)n(C)c3)n(C)c2)cc1C(=O)Nc1cc(C(=O)Nc2cc(P(=O)(O)O)c3cccc(P(=O)(O)O)c3c2)n(C)c1
pEC50: 4.05
pIC50: 3.90

C/C1=C\[C@H](C)C[C@H](C)OC(=O)C[C@H](c2ccc(O)cc2)NC(=O)[C@@H](Cc2c(Br)[nH]c3ccccc23)N(C)C(=O)[C@H](C)NC(=O)[C@@H](C)C1
pEC50: < 5.70
pIC50: 7.52

CC(=O)OCC1OC(n2c3c(c(-c4ccco4)c(C#N)c2=S)CCCC3)C(OC(C)=O)C(OC(C)=O)C1OC(C)=O (configuration not stated)
pEC50: < 3.70
pIC50: 3.81

O=S(=O)(c1ccc(Cl)c(Cl)c1)c1ccc(Cl)c(Cl)c1
pEC50: < 3.70
pIC50: < 3.70

C=CCOC(=O)C1C2OC3(C(C(=O)OC)=C2C(=O)OC)c2ccccc2CCC13 (configuration not stated)
pEC50: < 3.70
pIC50: 5.94

COc1cc(N)c2c(c1)SC(C)C(=O)N2 (configuration not stated)
pEC50: < 3.70
pIC50: 3.73

O=C1NC(N/N=C\C(O)C(O)C(O)CO)=N/C1=C/c1ccccc1 (configuration not stated)
pEC50: < 3.70 and 4.42
pIC50: 4.05 and 3.98

O=C(O/C(=C(/N=Nc1ccccc1)c1ccccc1)c1ccccc1)c1ccccc1
outcome: inactive

O=C(Cc1ccccc1)Nn1c(-c2ccccc2)nc2ccccc2c1=O
pEC50: 3.91
pIC50: < 3.70

Oc1cccnc1/C=N/OCc1ccccc1
pEC50: < 3.53
pIC50: 3.66

O=C1CC2CCCC23CC2(CCN13)OCCO2 (configuration not stated)
outcome: inactive

O=C1C2C(C(=O)N1c1ccccc1)C1c3ccccc3C2C2C(=O)N(c3ccccc3)C(=O)C21 (configuration not stated)
outcome: inactive

N#C/C(=C\c1ccc2ccccc2c1)c1ccccc1
pEC50: < 4.83
pIC50: < 4.83

O=C(O)CSC(=O)Nc1ccc(N=Nc2ccccc2)cc1
outcome: inactive

Fc1ccc(C2(CCCN3CCc4[nH]c5cc(F)ccc5c4C3)OCCO2)cc1
pEC50: < 3.70
pIC50: 4.73

CCc1nc(N)nc(N)c1-c1ccc(Cl)cc1
pEC50: < 6.00
pIC50: 7.43

N=c1c2ccccc2sc2nc3ccccc3n12
pEC50: < 4.28
pIC50: < 4.28

Cc1ccc(NC(=O)/C(CC(=O)c2sc(Nc3ccccc3Cl)nc2C)=N\Nc2ccc([N+](=O)[O-])cc2[N+](=O)[O-])c(C)c1
pEC50: < 3.70
pIC50: 4.01

C[C@@H](c1ccccc1)N1CN(C(=O)OCc2ccccc2)C(CO)C1=O (some centres not stated)
pEC50: < 3.70
pIC50: 3.73

COC(=O)NC12CC3CC(C(C)O1)C2N(Cc1ccccc1)C3 (configuration not stated)
pEC50: < 3.70
pIC50: < 3.70

CN(C)c1ccc(/C=C(\NC(=O)c2ccccc2)C(=O)Nc2ccccc2C(=O)NN2C(=O)CSC2c2ccc(N(C)C)cc2)cc1 (configuration not stated)
pEC50: < 4.30
pIC50: < 4.30

S=C1Cc2c(-c3ccccc3)cc(-c3cccc(Cl)c3)nc2-c2ccccc2N1
outcome: inactive

Cc1ccc(S(=O)(=O)OCC2OC(OC3(CO)OC(COS(=O)(=O)c4ccc(C)cc4)C(O)C3O)C(O)C(O)C2O)cc1 (configuration not stated)
pEC50: < 3.70
pIC50: < 3.70

NC(=O)CSSCC(N)=O
pEC50: 4.67
pIC50: 4.15

COC(=O)CCc1c(Cc2ccc[nH]2)[nH]c(C(=O)OCc2ccccc2)c1C
pEC50: < 3.70
pIC50: 4.51

CCOC(=O)c1c(NS(=O)(=O)c2ccc(C)cc2)sc(C)c1-c1ccccc1
pEC50: < 3.70
pIC50: 4.66

Cc1cc(C)nc(NS(=O)(=O)c2ccc(NC(=O)c3ccc4nc5ccccc5c(Nc5ccc(S(N)(=O)=O)cc5)c4c3)cc2)n1
pEC50: < 3.70
pIC50: 4.40

Cc1cc(NS(=O)(=O)c2ccc(N)cc2)sn1
pEC50: < 3.70
pIC50: < 3.70

CC1OC(OC2C(O[C@H]3CC[C@@]4(C)C(=CC[C@H]5[C@@H]6C[C@@H]7O[C@](O)(CC[C@@H](C)COC8OC(CO)C(O)C(O)C8O)[C@@H](C)[C@@H]7[C@@]6(C)CC[C@@H]54)C3)OC(CO)C(O)C2OC2OC(CO)C(O)C(O)C2O)C(O)C(O)C1O (some centres not stated)
pEC50: < 4.00
pIC50: 5.60

CC(N)S(=O)(=O)O (configuration not stated)
pEC50: < 3.70
pIC50: 3.80

CN(C)c1ccc(C(C2=C(O)c3ccccc3C(=O)C2=O)C2=C(O)c3ccccc3C(=O)C2=O)cc1
pEC50: < 3.70
pIC50: 4.51

O=C(Nc1cccc(C2=NCCN2)c1)Nc1cccc(C2=NCCN2)c1
pEC50: < 3.70
pIC50: 4.49

COc1ccc2c(c1)CC1c3c(ccc(OC)c3O)CC2N1C (configuration not stated)
pEC50: < 4.36
pIC50: 4.69

COC(=O)c1ccc(Cc2cc(Cc3ccc(C(=O)OC)cc3)cc(Cc3ccc(C(=O)OC)cc3)c2)cc1
pEC50: < 4.60
pIC50: < 4.60

O=C(O)c1cc(=O)[nH]c(O)c1N=Nc1ccc(/C=C/c2ccc(N=Nc3c(C(=O)O)cc(=O)[nH]c3O)cc2S(=O)(=O)O)c(S(=O)(=O)O)c1
pEC50: < 3.70
pIC50: 3.99

CCOC(=O)c1nc2ccccc2nc1Oc1cc(OC)cc(OC)c1
pEC50: < 3.70
pIC50: < 3.70

CN(C)C(=S)SSC(=S)SSC(=S)N(C)C
pEC50: < 5.70
pIC50: 6.19

C/C(=C\C(=O)Nc1ccc2n[nH]nc2c1)Nc1ccc2n[nH]nc2c1
outcome: inactive

Cc1cc(Cl)nc(Nc2nc3ccccc3[nH]2)n1
pEC50: < 3.70
pIC50: < 3.70

Nc1nc(=S)[nH]c(N)c1N=O
pEC50: 4.07
pIC50: 3.92

CCCCCCCCCCCCCCCC(=O)Nc1ccn(C2CCC(COP(=O)(O)OC3CC(n4cc(F)c(=O)[nH]c4=O)OC3CO)O2)c(=O)n1 (configuration not stated)
pEC50: < 6.90
pIC50: 7.42

CC1=C[C@H]2c3c([nH]c4ccccc34)C(c3c[nH]c4ccccc34)[C@H]2CC1 (some centres not stated)
outcome: inactive

Cc1ccc(Nc2cccc3c2C(=O)c2cccc(Nc4ccc(C)cc4S(=O)(=O)O)c2C3=O)c(S(=O)(=O)O)c1
outcome: active

COC1Cc2c(C)c(OC(C)=O)c3cccnc3c2O1 (configuration not stated)
pEC50: < 3.70
pIC50: 4.65

Clc1ccccc1C=NCC1CCC(CN=Cc2ccccc2Cl)CC1 (configuration not stated)
pEC50: < 3.70
pIC50: 5.04

O=C(/C=C/c1c(O)ccc2ccccc12)c1ccccc1
pEC50: < 3.74
pIC50: < 4.00

CC(=O)OCc1c(O)c2c([nH]c1=O)CCc1ccccc1-2
pEC50: < 4.60
pIC50: < 4.60

C=C1C(=O)c2cc3c(cc2C(c2cc(OC)c(OC)c(OC)c2)[C@@H]1C(=O)O)OCO3 (some centres not stated)
outcome: inactive

O=C(Cn1ccnc1[N+](=O)[O-])NCCO
outcome: inactive

C=C1CN(S(=O)(=O)c2ccc(C)cc2)CCCN(C(C)CC)CCCN(S(=O)(=O)c2ccc(C)cc2)C1 (configuration not stated)
pEC50: < 3.70
pIC50: < 3.70

O=C1CSC(c2ccccc2[N+](=O)[O-])N1c1ccc(-n2c(-c3ccccc3)nc3ccccc3c2=O)cc1 (configuration not stated)
pEC50: < 3.70
pIC50: 3.90

Clc1cccc(C2ON=C(c3ccccc3)N2C23CC4CC(CC(C4)C2)C3)c1Cl (configuration not stated)
pEC50: < 3.70
pIC50: < 3.70

O=C1NC(O)c2cccc(Cl)c2O1 (configuration not stated)
outcome: inactive

Brc1ccc(N=c2nc3ccccn3n3nc(-c4ccccc4)cc23)cc1
pEC50: < 4.62
pIC50: < 4.62

CCOC(=O)[C@H]1Nc2ccc(O)cc2C2c3ccccc3CC21 (some centres not stated)
pEC50: < 3.52
pIC50: 4.25
